For series [1], the target named is T1, NTPDase3 (Homo sapiens, UniProt O75355).
T1 sequence (O75355 1-529): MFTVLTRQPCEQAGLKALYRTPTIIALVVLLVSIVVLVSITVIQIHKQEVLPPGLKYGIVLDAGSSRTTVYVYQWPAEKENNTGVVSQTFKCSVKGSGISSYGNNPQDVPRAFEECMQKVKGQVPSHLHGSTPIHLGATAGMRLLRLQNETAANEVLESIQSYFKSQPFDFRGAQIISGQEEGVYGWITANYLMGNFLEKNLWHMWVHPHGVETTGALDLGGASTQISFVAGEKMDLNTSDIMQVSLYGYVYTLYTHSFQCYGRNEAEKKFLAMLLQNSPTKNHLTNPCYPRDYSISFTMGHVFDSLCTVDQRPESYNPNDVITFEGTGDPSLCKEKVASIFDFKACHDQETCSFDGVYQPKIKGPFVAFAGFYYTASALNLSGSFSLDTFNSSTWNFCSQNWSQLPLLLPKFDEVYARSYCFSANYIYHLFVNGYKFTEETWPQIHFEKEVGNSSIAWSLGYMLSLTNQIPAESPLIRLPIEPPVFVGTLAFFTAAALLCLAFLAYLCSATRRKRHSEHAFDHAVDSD
Put plainly: Inhibition of ATPase activity of human NTPDase3. Format: biochemical. As to conditions: analogue at 100 μM; ATP 100 μM as substrate. As for the experimental part: (§1) FIG. 2: Inhibition of NTPDases and NPPs by analogues 9-12 using as substrates ATP (100 μM) for NTPDase1,2,3,8 and pNP-TMP (100 μM) for NPP1,3 (Panel A); and ATP (100 μM) was used as the substrate for NPP1 (Panel B);
(§2) At least 2 independent experiments were performed. In panel A, the activity with 100 μM ATP was set as 100%, which was 287±31, 395±67, 278±22, 119±26 nmol of Pi·min−1·mg of protein−1 for human NTPDase1, -2, -3 and -8, respectively, and the activity with 100 μM pNP-TMP was set as 100% which was 67±5, 21±1 nmol of p-nitrophenol·min−1·mg of protein−1 for human NPP1 and NPP3, respectively. In panel B, the activity with 100 μM ATP was set as 100% which was 34±7 nmol of PPi·min−1·mg of protein−1 for NPP1.

Series [2] is described as follows: Stability to air-oxidation by 31P-NMR. Format: physicochemical. As to conditions: aqueous solution, constant air flow, RT, 3 weeks. From the text: To evaluate the chemical stability of uridine-5′-Pα,α-dithiophosphate analogues, we measured by 31P-NMR the time-dependent percentage of the analogues remaining under basic and acidic conditions, and due to air-oxidation.
An aqueous solution of 10 was subjected to a constant air flow.

In series [3] the target is T2, NTPDase1 (Homo sapiens, UniProt P49961).
T2 sequence (P49961 1-510): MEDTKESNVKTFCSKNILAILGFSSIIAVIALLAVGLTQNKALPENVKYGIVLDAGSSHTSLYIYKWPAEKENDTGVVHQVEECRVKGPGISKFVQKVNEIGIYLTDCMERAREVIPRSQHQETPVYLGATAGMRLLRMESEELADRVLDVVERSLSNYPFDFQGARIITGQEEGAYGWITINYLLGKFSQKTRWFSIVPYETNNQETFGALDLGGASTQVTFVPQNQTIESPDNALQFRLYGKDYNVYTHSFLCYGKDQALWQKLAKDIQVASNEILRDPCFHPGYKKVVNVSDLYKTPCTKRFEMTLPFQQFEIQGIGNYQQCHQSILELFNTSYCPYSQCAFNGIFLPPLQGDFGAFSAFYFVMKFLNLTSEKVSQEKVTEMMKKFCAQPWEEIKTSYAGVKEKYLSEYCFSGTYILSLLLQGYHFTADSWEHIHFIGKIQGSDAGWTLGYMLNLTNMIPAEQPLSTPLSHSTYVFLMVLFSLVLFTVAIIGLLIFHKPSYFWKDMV
Put plainly: Inhibition of ATPase activity of human NTPDase1. Format: biochemical. As to conditions: analogue at 100 μM; ATP 100 μM as substrate. As for the experimental part: as §1, §2

The target of series [4] is T3, NTPDase2 (Homo sapiens, UniProt Q9Y5L3).
T3 sequence (Q9Y5L3 1-495): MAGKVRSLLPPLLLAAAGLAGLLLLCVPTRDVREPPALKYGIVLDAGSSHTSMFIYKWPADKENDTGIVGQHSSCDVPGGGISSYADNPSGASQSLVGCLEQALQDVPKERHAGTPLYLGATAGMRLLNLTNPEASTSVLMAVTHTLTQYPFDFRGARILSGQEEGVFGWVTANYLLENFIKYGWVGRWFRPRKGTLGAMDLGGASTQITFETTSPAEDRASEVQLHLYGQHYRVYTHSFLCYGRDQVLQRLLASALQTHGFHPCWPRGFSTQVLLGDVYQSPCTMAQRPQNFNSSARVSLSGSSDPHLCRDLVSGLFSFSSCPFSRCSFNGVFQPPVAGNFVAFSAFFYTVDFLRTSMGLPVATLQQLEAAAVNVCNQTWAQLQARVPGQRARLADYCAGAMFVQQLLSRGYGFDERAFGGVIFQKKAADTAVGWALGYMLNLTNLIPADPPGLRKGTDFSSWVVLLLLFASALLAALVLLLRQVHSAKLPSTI
Description: Inhibition of ATPase activity of human NTPDase2. Particulars: analogue at 100 μM; ATP 100 μM as substrate. The format is biochemical. As to the method: as §1, §2

The target of series [5] is P2Y6R (Homo sapiens, UniProt Q15077). Description: P2Y6R agonist activity, inositol-1-phosphate (IP1) accumulation. The format is cell-based. Set-up: expressed in transfected cells; host or cells: AD293 cells. As to conditions: vs. UDP. From the text:
FIG. 3: P2Y6R agonist activity of analogues 9-12 vs. UDP determined by measuring the production of inositol-1-phosphate (IP1);

This note sets out measurements from patent US20220220135A1 (BAR-ILAN UNIVERSITY, priority 2019, published 2022).

Each structure is given as a SMILES string.

P2Y6R, sequence (Q15077 whole entry): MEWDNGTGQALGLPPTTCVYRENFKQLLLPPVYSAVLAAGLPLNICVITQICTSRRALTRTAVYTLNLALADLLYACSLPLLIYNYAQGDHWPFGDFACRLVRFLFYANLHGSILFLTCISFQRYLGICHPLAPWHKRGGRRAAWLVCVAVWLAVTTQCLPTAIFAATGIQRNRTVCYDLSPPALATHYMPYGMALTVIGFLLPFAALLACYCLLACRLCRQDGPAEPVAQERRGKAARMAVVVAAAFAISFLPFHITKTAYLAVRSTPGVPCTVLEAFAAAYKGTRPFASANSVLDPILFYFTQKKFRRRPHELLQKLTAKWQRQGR

As to `O=c1ccn([C@@H]2O[C@H](COP(=S)(S)OP(=O)(O)OP(=O)(O)O)[C@@H](O)[C@H]2O)c(=O)[nH]1` (stereo partly drawn) [Analogue 10], the “inhibition of human NTPDase3” value in series [1] was “no inhibition”. The stability to air-oxidation entry in series [2] was “no new signals”. In addition, in series [3], the “inhibition of human NTPDase1” value is given as “no inhibition”. In addition, in series [4], the “inhibition of human NTPDase2” value is on record as “no inhibition”. For the same compound, the “P2Y6-R agonist activity (IP1 accumulation)” value (“P2Y6-R agonist activity” below) in series [5] is listed as “limited agonist activities”.

As to `O=c1ccn([C@@H]2O[C@H](COP(=S)(S)OP(=O)(O)CP(=O)(O)O)[C@@H](O)[C@H]2O)c(=O)[nH]1` (stereo partly drawn) [Analogue 11], in series [1], the “inhibition of human NTPDase3” value is “negligible effects”. Further, in series [2], the stability to air-oxidation entry is “complete stability”. The “inhibition of human NTPDase1” value in series [3] was “negligible effects”. Moreover, the “inhibition of human NTPDase2” value in series [4] is “negligible effects”. Moreover, in series [5], the “P2Y6-R agonist activity” value was “devoid of any P2Y6—R activity”.

For `O=c1ccn([C@@H]2O[C@H](COP(=S)(S)OP(=O)(O)OP(=O)(O)OP(=S)(S)OC[C@H]3O[C@@H](n4ccc(=O)[nH]c4=O)[C@H](O)[C@@H]3O)[C@@H](O)[C@H]2O)c(=O)[nH]1` (stereo partly drawn) [Analogue 12], in series [1], the inhibition at 100 µM turned out to be 24%. Moreover, in series [2], the stability to air-oxidation result was “completely resistant”. Also, the “inhibition of human NTPDase1” value in series [3] is reported as “selective to NPP1”. The “inhibition of human NTPDase2” value in series [4] is recorded as “selective to NPP1”. Also, the “P2Y6-R agonist activity” value in series [5] is reported as “limited agonist activities”.
